Data as given in ChEMBL document CHEMBL1133403 (Bioorg Med Chem Lett, 2000).
The source made the active and inactive calls. No cut-off for these calls is given here.

How the values were obtained:
Glucocorticoid receptor = biological target: T1, Glucocorticoid receptor (Homo sapiens, UniProt P04150); experiment: Cross-reactivity as binding to human glucocorticoid receptor (hGR); NA=not active; assay type: functional
T1 sequence (P04150 whole entry): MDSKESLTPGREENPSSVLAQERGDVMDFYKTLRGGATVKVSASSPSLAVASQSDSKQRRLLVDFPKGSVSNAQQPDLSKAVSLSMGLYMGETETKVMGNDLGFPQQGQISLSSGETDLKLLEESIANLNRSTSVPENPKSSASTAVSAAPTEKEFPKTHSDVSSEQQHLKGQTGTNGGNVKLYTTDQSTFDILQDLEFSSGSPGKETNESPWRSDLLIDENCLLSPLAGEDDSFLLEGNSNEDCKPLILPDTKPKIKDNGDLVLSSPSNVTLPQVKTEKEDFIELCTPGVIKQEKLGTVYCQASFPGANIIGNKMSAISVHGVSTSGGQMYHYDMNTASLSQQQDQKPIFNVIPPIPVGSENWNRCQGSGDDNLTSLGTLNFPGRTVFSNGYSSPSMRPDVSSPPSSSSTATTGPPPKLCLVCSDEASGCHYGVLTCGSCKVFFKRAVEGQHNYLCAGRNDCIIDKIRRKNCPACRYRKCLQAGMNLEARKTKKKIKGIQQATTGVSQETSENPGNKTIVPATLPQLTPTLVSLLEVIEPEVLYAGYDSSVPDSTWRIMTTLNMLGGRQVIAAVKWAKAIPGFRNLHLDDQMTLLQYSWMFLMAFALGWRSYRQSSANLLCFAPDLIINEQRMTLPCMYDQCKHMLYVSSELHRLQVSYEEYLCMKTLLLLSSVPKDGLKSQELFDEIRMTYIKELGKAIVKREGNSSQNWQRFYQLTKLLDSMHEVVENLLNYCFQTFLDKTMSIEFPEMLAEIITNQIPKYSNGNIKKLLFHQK

[1] = biological target: T2, Mineralocorticoid receptor (Homo sapiens) (UniProt P08235); experiment: Percent inhibition of mineralocorticoid receptor transcriptional activity at aldosterone EC50; NA=not active; assay type: functional
T2 sequence (whole entry): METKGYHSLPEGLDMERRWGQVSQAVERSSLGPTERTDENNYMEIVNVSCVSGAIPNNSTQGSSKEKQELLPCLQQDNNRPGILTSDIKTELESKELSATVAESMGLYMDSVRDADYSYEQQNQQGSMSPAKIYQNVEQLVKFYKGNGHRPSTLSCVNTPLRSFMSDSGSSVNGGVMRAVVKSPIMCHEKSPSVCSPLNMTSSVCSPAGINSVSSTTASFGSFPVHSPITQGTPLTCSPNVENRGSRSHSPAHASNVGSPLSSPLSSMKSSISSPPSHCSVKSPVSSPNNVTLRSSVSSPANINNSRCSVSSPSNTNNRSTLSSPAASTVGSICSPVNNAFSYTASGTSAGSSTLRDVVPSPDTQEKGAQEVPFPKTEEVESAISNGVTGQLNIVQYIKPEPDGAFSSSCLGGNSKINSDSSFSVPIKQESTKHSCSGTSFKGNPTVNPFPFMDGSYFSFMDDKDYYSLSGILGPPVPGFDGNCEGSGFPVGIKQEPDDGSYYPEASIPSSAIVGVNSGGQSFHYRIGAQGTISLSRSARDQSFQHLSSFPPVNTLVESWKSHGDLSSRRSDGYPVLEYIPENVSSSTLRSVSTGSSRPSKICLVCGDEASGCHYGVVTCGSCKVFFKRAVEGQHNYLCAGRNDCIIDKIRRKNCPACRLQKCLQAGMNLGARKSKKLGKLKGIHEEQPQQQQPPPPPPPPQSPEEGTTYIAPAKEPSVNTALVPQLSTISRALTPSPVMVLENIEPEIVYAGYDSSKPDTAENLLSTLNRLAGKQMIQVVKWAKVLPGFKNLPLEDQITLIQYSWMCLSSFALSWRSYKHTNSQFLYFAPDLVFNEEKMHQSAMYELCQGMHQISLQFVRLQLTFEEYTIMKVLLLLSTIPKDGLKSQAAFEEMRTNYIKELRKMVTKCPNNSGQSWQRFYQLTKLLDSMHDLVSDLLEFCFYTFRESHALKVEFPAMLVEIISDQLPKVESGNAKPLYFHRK

[2] = biological target: T3, Mineralocorticoid receptor (Homo sapiens, UniProt P08235); experiment: Cross-reactivity as binding to human mineralocorticoid receptor (hMR); NA=not active; assay type: functional
T3 sequence (P08235 whole entry): T2 sequence (whole entry)

Progesterone receptor [3] = biological target: T4, Progesterone receptor (Homo sapiens, UniProt P06401); experiment: Human progesterone receptor (hPR) agonist activity in T47D human breast cancer cell line; assay type: functional, cell-based
T4 sequence (P06401 whole entry): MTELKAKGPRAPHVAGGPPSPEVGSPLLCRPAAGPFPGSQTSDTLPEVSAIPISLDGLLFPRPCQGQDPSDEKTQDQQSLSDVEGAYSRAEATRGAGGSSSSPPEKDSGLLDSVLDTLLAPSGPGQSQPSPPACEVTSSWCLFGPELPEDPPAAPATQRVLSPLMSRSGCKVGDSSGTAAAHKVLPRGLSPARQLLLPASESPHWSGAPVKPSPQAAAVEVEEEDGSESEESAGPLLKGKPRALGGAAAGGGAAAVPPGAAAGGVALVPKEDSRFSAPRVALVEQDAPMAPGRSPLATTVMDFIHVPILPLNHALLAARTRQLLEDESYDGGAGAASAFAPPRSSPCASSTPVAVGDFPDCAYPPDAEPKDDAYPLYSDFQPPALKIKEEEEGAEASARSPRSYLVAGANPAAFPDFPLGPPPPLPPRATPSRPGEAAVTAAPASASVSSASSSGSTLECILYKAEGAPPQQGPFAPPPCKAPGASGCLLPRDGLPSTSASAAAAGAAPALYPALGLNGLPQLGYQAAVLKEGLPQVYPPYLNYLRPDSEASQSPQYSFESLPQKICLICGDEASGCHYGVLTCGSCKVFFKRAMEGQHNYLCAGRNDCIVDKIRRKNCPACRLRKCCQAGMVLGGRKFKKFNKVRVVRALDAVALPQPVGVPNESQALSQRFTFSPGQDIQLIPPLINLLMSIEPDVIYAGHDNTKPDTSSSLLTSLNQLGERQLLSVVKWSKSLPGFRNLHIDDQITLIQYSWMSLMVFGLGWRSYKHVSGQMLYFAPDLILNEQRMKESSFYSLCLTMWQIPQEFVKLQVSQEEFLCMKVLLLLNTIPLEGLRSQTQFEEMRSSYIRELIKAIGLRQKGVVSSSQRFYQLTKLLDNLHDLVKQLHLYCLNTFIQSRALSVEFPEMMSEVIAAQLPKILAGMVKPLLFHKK

Progesterone receptor [4] = biological target: T4, Progesterone receptor; experiment: Binding affinity against human progesterone receptor (hPR) in a competitive binding assay

IC50 (Glucocorticoid receptor): Not Active
Efficacy [1]: inactive
IC50 [2]: Not Active
EC50 (Progesterone receptor [3]): 1020 nM
Ki (Progesterone receptor [4]): 2.6 nM
SMILES: CC1=CC(C)(C)Nc2ccc(-c3ccc([N+](=O)[O-])s3)cc21
